Data reported in patent US20230200388A1, “COMPOUNDS AND METHODS FOR STIMULATING PLANTS” (Sound Agriculture Company, priority 2020, published 2023).

Experiments:
Assay type in all cases: cell-based
[1] = test system: nifHpro::luciferase Azotobacter vinelandii reporter line; assay: Nitrogenase (nifH) activity with nifHpro::luciferase Azotobacter vinelandii reporter line; conditions: 10 μM to 0.001 μM in DMSO, 21 hours, over controls, n=9 experiments, FIG. 6
Description: Gibson Assembly was used to clone the luciferase gene (ordered from IDT) into pE_Gm and LR into pVSP61 (plasmids provided by Doug Dahlbeck at Staskawicz Lab, UC Berkeley). Standard triparental mating was used with pRK600 (provided by Doug Dahlbeck at Staskawicz Lab, UC Berkeley) to obtain the final reporter strain of Azotobacter vinelandii transformed with reporter plasmid.
nifHpro::luciferase Azotobacter vinelandii were grown for 24 hours in 50 mL liquid Burks —N media (HiMedia Laboratories) with 1 ng/μL Kanamycin, shaking at 100 RPM under lights at ˜30° C. After 24 hours, supernatant was spun down 12000 G for two minutes to collect cells. After supernatant was removed, cells were washed with cleared Burks —N liquid media supernatant, resuspended, and centrifuged again at 12000 G. This process was repeated, for a total of two washes.
Resuspended cells were combined with Burks —N media with 1 ng/μL Kanamycin, to obtain a fresh culture at OD 0.1. 50 mL shake flasks were then inoculated with 5 mL of this culture, plus appropriate chemistry, in the scheme that follows. A stock solution of Quercetin was made in DMSO. […]
After 21 hours, 50 mL flasks were removed from the shaker. […] Plates were inserted into plate reader and luminescence of each well was analyzed.

[2] = test system: soil's native microbial community; assay: Phosphate solubilization in soil consortia (soil as inoculum in NBRIP media); conditions: relative to soil not contacted with QC
Excerpt: To determine if a test compound, QC, alters phosphate solubilization in a soil's native microbial community, dried and sieved soil was used as a bacterial inoculum in NBRIP media with and without QC.

[3] = test system: nifHpro::luciferase Azotobacter vinelandii reporter strain; assay: nifHpro::luciferase bioreporter assay for nitrogen fixation; conditions: 1 μM, 24 h, relative to control bacteria not contacted
Description: Three hundred base pairs upstream of the ATG of the nifHDK of Azotobacter vinelandii (nifHipro) was cloned in frame, upstream of luciferase in pVSP61 (kanR). Azotobacter vinelandii (Lipman ATCC® BAA-1303) was transformed with the reporter plasmid with triparental mating, Transformants were selected for on nitrogen-free kanamycin plates and confirmed with PCR and sequencing.
Five milliliters of nifHpro::luciferase Bioreporter strain #171 was grown overnight in autoclaved, nitrogen-free medium (Burks, HiMedia M707) at starting OD600=0.02 with 1 ug/mL Kanamycin in sterile 50 mL flasks. Chemical treatments were dissolved in 100% EtOH and added at appropriate concentrations, keeping the volume constant. The solvent was no more than 2% of the final culture volume, and solvent only controls were included in each experiment.
After 24 h, the growth density each culture was read in a clear, flat-bottomed microplate by adding 180 μl to each well (flasks were measured in triplicate) and measuring absorbance at 600 nm in a microplate reader. […]
The luminescence of each well was read on an iD3 plate reader (Molecular Devices). Luminescence of each well (reported as RLU, Relative Light Unit) was divided by its OD600 in order to adjust for culture density.

## O=c1c(O)c(-c2ccc(O)c(O)c2)oc2cc(O)cc(O)c12 [Formula Id]
[1]
  activation of nifHpro::luciferase bioreporter (nitrogenase gene expression): activated

## O=c1c(O)c(-c2ccc(O)c(O)c2)oc2cc(O)cc(O)c12 [QC, quercetin]
[2]
  amount of detectable orthophosphate in the growth media of soil-inoculated cultures: increased
[3]
  luminescence (nitrogen fixation): significant increase
